In US11745001B2, “Therapeutic bandage” (University of Connecticut, priority 2020, dated 2023):

Excerpt: FIG. 4A illustrates a microneedle base 44 showing the hollow channel 50. FIG. 4B illustrates the microneedle base 44 coupled to the rapid-dissolving tips 40, which include tattoo ink. In one embodiment, the therapeutic bandage 10 may be producing the microneedles 26 and then coupling the microneedles 26 to the bandage matrix 30. In some embodiments, the microneedles 26 may be integrally formed with a portion of the bandage matrix 30. The microneedles are produced by forming the base 44, with the microchannel 50, and loading the base […] with the second immunomodulatory compound. The tip 40 is then produced and loaded with the first immunomodulatory compound. The tip 40 is then coupled to the base 44 to seal the microchannel […]. To test the mechanical strength of the microneedles 26, the tips 40 were loaded with insoluble tattoo ink (FIG. 4B). The microneedles 26 were then applied to cultured human skin explants using a 1 Newton application force. […] FIG. 4E illustrates a longitudinal section of explanted human skin showing spacing of microneedle deposition in the dermal layer. The kinetics of drug release were then measured using epifluorescence microscopy and two fluorescent dyes.

diffusion radius compared with the tip dye: approximately equal diffusion radius
release of red fluorescence from the microneedle base: after about one hour
visibility of dye: barely visible
SMILES: CCN(CC)c1ccc2c(-c3ccc(S(=O)(=O)O)cc3S(=O)(=O)[O-])c3ccc(=[N+](CC)CC)cc-3oc2c1 [sulforhodamine B]
